Results as given in EP1466613A1, “Compositions for mucosal and oral administration comprising hCG fragments” (Biotempt B.V., priority 2003, dated 2004).
Ends that are not written are not given here.

Test system: NF-kB
Assay: EMSA of nuclear extracts for basal and LPS induced NF-kB translocation, RAW 264.7 mouse macrophages (second experiment)
Type: cell-based
Details: RAW264.7 cells, LPS in combination with peptide, 30 minutes incubation
Protocol: The transcription factor NF-kB participates in the transcriptional regulation of a variety of genes. Nuclear protein extracts were prepared from LPS and peptide treated RAW264.7 cells or from LPS treated RAW264.7 cells. In order to determine whether the peptide modulates the translocation of NF-kB into the nucleus, on these extracts EMSA was performed. Here we see that indeed peptides are able to modulate the translocation of NF-kB since the amount of labeled oligonucleotide for NF-kB is reduced. […] RAW 264.7 mouse macrophages were cultured in DMEM, containing 10% or 2% FBS, penicillin, streptomycin and glutamine, at 37 °C, 5% CO2. Cells were seeded in a 12-wells plate (3x10^6 cells/ml) in a total volume of 1 ml for 2hours and then stimulated with LPS (E. coli 026:B6; Difco Laboratories, Detroit, MI, USA) and/or gene-regulatory peptide(1 microgr/ml). After 30 minutes of incubation plates were centrifuged and cells were collected for nuclear extracts. Nuclear extracts and EMSA were prepared according to Schreiber et al. Cells were collected in a tube and centrifuged for 5 minutes at 2000 rpm (rounds per minute) at 4°C (Universal 30 RF, Hettich Zentrifuges). […]

circular LQGVLPALPQVVC (also: circular, ring type not given here)
LPS induced translocation of NF-kB: inhibition of LPS induced translocation of NF-kB
